Reference: US8895597B2, “Combination of local temozolomide with local BCNU” (priority 2010, dated 2014)

Assays:
9L gliosarcoma = experiment: Efficacy of local TMZ, local BCNU and XRT, intracranial 9L gliosarcoma (second experiment); type: in vivo, F344 rats; details: without XRT
Text: TMZ, provided by the National Institute of Health/National Cancer Institute, (Bethesda, Md.), was incorporated into a polyanhydride CPP:SA 20:80 polymer at concentrations of 50% (w/w) by methods as described by Tamargo, et al., Cancer Res. 53(2):329-333 (1993). BCNU was purchased from the Johns Hopkins Hospital pharmacy (Bristol Meyers; Princeton, N.J.) and polymers were made at concentrations of 3.8% (w/w) in a similar fashion. The polymers were then pressed into discs weighing approximately 10 mg. Blank polymers (100% CPP:SA) were made in an analogous manner. In vitro release kinetics, biodistribution studies, and studies to determine maximally tolerated dose of BCNU and TMZ polymers as described by Brem, et al., Cancer Chemother. Pharmacol. 60(5):643-650 (2007); Tamargo, et al., Cancer Res. 53(2):329-333 (1993); and Grossman, et al., J. Neurosurg. 76(4):640-647 (1992). Polymers were stored at −20° C. until use.
The 9L gliosarcoma was obtained from Dr. M. Barker at the University of California-San Francisco Brain Tumor Research Center (San Francisco, Calif.). […]
To determine the efficacy of the combination of locally delivered TMZ with locally delivered BCNU and XRT, tumor-bearing rats were randomized into groups of sixteen for treatment on post-operative Day 5. […] Any animals appearing moribund were sacrificed and date of death recorded. […]

F98 glioma = experiment: Efficacy of local TMZ, local BCNU and XRT, intracranial F98 glioma (resistant to alkylating agents); type: in vivo, F344 rats; details: without XRT

Cn1nnc2c(C(N)=O)ncn2c1=O [50 mg/kg oral TMZ, temozolomide]
Long-term survivors (%) (9L gliosarcoma; alive at Day 120): 0% | Median survival (days) (9L gliosarcoma; range in brackets): 24 (14-33) days | Long-term survivors (%) (F98 glioma; alive at Day 120): 0% | Median survival (days) (F98 glioma; range in brackets): 15 (13-18) days
